Test results as given in patent US8906868B2, “Aminoglycoside derivatives” (Rempex Pharmaceuticals, Inc., priority 2010, dated 2014).
≈ marks a conversion by molar mass, not a printed value. Read-outs that look alike come from different tables or passages of the source.

How the values were obtained:
[1] = tested on: ACM1006 acc(6′)-Ib; experiment: microbe, parasite or virus in culture; format: cell-based, Acinetobacter baumannii; details: Acinetobacter baumannii; Table 4; read-out: Compound MIC on Bacterial Strains: Acinetobacter baumannii ACM1006 acc(6′)-Ib
Experimental: (§1) To compare microbiological activity of the test compounds, minimum inhibitory concentrations (MIC.s) were determined. Antibiotic MICs were obtained using the broth microdilution method according to Clinical and Laboratory Standards Institute (CLSI) approved guidelines (Methods for dilution antimicrobial susceptibility tests for bacteria that grow aerobically; approved standard—7th ed. CLSI document M7-A7. Clinical and Laboratory Standards Institute, Wayne, Pa., incorporated herein by reference in its entirety). Antibiotics were dissolved as specified by CLSI (Performance standards for antimicrobial susceptibility testing; Seventeenth informational supplement. CLSI document M100-S17. Clinical and Laboratory Standards Institute, Wayne, Pa., incorporated herein by reference in its entirety), and were serially diluted 2-fold in cation adjusted Mueller Hinton Broth (CaMHB) at 2× concentration. Bacterial inoculums were prepared in CaMHB by suspension of a colony from an agar plate that was prepared the previous day to obtain a final concentration of 5×10^5CFU/ml. The plates were incubated for 18 hours at 35° C. […] MIC.s were determined by reading the turbidity of plate wells using a SpectraMax Plus384 plate reader (Molecular Devices, Sunnyvale, Calif., USA) at 600 nm and were confirmed by visual inspection.

[2] = tested on: EC1002 aph(3′)-IV; experiment: organism not typed; format: cell-based; details: read-out: Compound MIC on Bacterial Strains: EC1002 aph(3′)-IV
Experimental: as §1
(§2) Activity of the test compounds was determined using QC strains and strains with known aminoglycoside resistance mechanisms (TABLE 3). This specific panel contained strains expressing enzymes that covalently modify N2″, N3 and N3′ positions.

[3] = tested on: Staphylococcus aureus (ATCC 29213); experiment: MIC, broth microdilution; details: Staphylococcus aureus
[4] = tested on: PAM3072 aac(6′)-II; experiment: microbe, parasite or virus in culture; format: cell-based, Pseudomonas aeruginosa; details: Pseudomonas aeruginosa, Table 5; read-out: Compound MIC on Bacterial Strains: Pseudomonas aeruginosa PAM3072 aac(6′)-II
Experimental: as §1

[5] = tested on: PAM3073 aac(6′)-I; experiment: microbe, parasite or virus in culture; format: cell-based, Pseudomonas aeruginosa; details: Pseudomonas aeruginosa, Table 5; read-out: Compound MIC on Bacterial Strains: Pseudomonas aeruginosa PAM3073 aac(6′)-I
Experimental: as §1

[6] = tested on: ECM6003 rmtB; experiment: microbe, parasite or virus in culture; format: cell-based, Escherichia coli; details: Escherichia coli; Table 3; read-out: Compound MIC on Bacterial Strains: ECM6003 rmtB
Experimental: as §1, §2
The panel also contained a strain expressing ribosomal RNA methylase, RmtB.

[7] = tested on: Pseudomonas aeruginosa (ATCC 27853); experiment: MIC, broth microdilution; details: Pseudomonas aeruginosa
[8] = tested on: ACM1005 ATCC 19004; experiment: MIC, broth microdilution; format: cell-based, Acinetobacter baumannii; details: Acinetobacter baumannii, ATCC19004; Table 4; read-out: Compound MIC on Bacterial Strains: Acinetobacter baumannii ACM1005 ATCC 19004
Experimental: as §1

[9] = tested on: ECM6007 aac(6′) + aph(2″); experiment: microbe, parasite or virus in culture; format: cell-based, Escherichia coli; details: Escherichia coli, 18 h; Table 4; read-out: Compound MIC on Bacterial Strains: Escherichia coli ECM6007 aac(6′) + aph(2″)
Experimental: as §1

[10] = tested on: EC1001 acc(6′)-Ib; experiment: microbe, parasite or virus in culture; format: cell-based, Escherichia coli; details: Escherichia coli; Table 4; read-out: Compound MIC on Bacterial Strains: Escherichia coli EC1001 acc(6′)-Ib
Experimental: as §1

[11] = tested on: Klebsiella pneumonia (ATCC 43816); experiment: MIC, broth microdilution; details: Klebsiella pneumoniae, ATCC43816, read-out: Compound MIC on Bacterial Strains: K. pneumonia ATCC 43816
[12] = tested on: Escherichia coli (ATCC 25922); experiment: MIC, broth microdilution; details: Escherichia coli
[13] = tested on: Acinetobacter baumannii (ATCC 19606); experiment: MIC, broth microdilution; details: Acinetobacter baumannii, ATCC19606, read-out: Compound MIC on Bacterial Strains: A. baumannii ATCC 19606
[14] = tested on: ECM6006 aph(3′)-III; experiment: microbe, parasite or virus in culture; format: cell-based, Escherichia coli; details: Escherichia coli, read-out: Compound MIC on Bacterial Strains: ECM6006 aph(3′)-III
Experimental: as §1, §2

[15] = tested on: ECM6010 ant(2″)-I; experiment: microbe, parasite or virus in culture; format: cell-based, Escherichia coli; details: Escherichia coli, read-out: Compound MIC on Bacterial Strains: ECM6010 ant(2″)-I
Experimental: as §1, §2

[16] = tested on: ECM6011 aph(3′)-I; experiment: microbe, parasite or virus in culture; format: cell-based, Escherichia coli; details: Escherichia coli, read-out: Compound MIC on Bacterial Strains: ECM6011 aph(3′)-I
Experimental: as §1, §2

[17] = tested on: ECM6009 aac(3)-II; experiment: microbe, parasite or virus in culture; format: cell-based, Escherichia coli; details: Escherichia coli, read-out: Compound MIC on Bacterial Strains: ECM6009 aac(3)-II
Experimental: as §1, §2

[18] = ATCC29213, read-out: Compound MIC on Bacterial Strains: S. aureus ATCC 29213, QC strain, Table 2
[19] = ATCC29213, read-out: Compound MIC on Bacterial Strains: Staphylococcus aureus SAM1000 ATCC 29213, Table 5
[20] = ATCC27853, read-out: Compound MIC on Bacterial Strains: P. aeruginosa ATCC 27853
[21] = ATCC27853, read-out: Compound MIC on Bacterial Strains: Pseudomonas aeruginosa PAM3034 ATCC 27853
[22] = ATCC25922, read-out: Compound MIC on Bacterial Strains: E. coli ATCC 25922
[23] = ATCC25922, read-out: Compound MIC on Bacterial Strains: ECM6000 ATCC 25922
[24] = ATCC25922, read-out: Compound MIC on Bacterial Strains: Escherichia coli ECM6000 ATCC 25922

Row | SMILES | MIC [1] [µg/mL] | MIC [2] [µg/mL] | MIC [3, 18] [µg/mL] | MIC [3, 19] [µg/mL] | MIC [4] [µg/mL] | MIC [5] [µg/mL] | MIC [6] [µg/mL] | MIC [7, 20] [µg/mL] | MIC [7, 21] [µg/mL] | MIC [8] [µg/mL] | MIC [9] [µg/mL] | MIC [10] [µg/mL] | MIC [11] [µg/mL] | MIC [12, 22] [µg/mL] | MIC [12, 23] [µg/mL] | MIC [12, 24] [µg/mL] | MIC [13] [µg/mL] | MIC [14] [µg/mL] | MIC [15] [µg/mL] | MIC [16] [µg/mL] | further results
1 | CN[C@@H]1[C@@H](O)[C@@H](O[C@@H]2[C@@H](O)[C@H](O[C@H]3O[C@H](CNCC(O)CO)CC[C@H]3N)[C@@H](N)C[C@H]2NC(=O)[C@@H](O)CCN)OC[C@]1(C)O (stereo partly drawn) [Compound 8, (2S)-4-amino-N-((1R,2S,3S,4R,5S)-5-amino-4-((2R,3R,6S)-3-amino-6-((2,3-dihydroxypropylamino)methyl)tetrahydro-2H-pyran-2-yloxy)-2-((2R,3R,4R,5R)-3,5-dihydroxy-5-methyl-4-(methylamino)tetrahydro-2H-pyran-2-yloxy)-3-hydroxycyclohexyl)-2-hydroxybutanamide] | 1 to 8 (≈ 1.6 to 12.8 µM) | < 1 | < 1 | < 1 | > 8 | 1 to 8 (≈ 1.6 to 12.8 µM) | > 8 | 1 to 8 (≈ 1.6 to 12.8 µM) | 1 to 8 (≈ 1.6 to 12.8 µM) | 1 to 8 (≈ 1.6 to 12.8 µM) | < 1 | < 1 | < 1 | < 1 | < 1 | < 1 | > 8 | 1 to 8 (≈ 1.6 to 12.8 µM) | < 1 | < 1 | MIC [17]: < 1 µg/mL
2 | CN[C@@H]1[C@@H](O)[C@@H](O[C@@H]2[C@@H](O)[C@H](O[C@H]3O[C@H](CNCCO)CC[C@H]3N)[C@@H](N)C[C@H]2NC(=O)C2(O)CNC2)OC[C@]1(C)O [Compound 43, N-((1R,2S,3S,4R,5S)-5-amino-4-((2R,3R,6S)-3-amino-6-((2-hydroxyethylamino)methyl)tetrahydro-2H-pyran-2-yloxy)-2-((2R,3R,4R,5R)-3,5-dihydroxy-5-methyl-4-(methylamino)tetrahydro-2H-pyran-2-yloxy)-3-hydroxycyclohexyl)-3-hydroxyazetidine-3-carboxamide] | < 1 | 1 to 8 (≈ 1.69 to 13.5 µM) | < 1 | < 1 | > 8 | 1 to 8 (≈ 1.69 to 13.5 µM) | > 8 | 1 to 8 (≈ 1.69 to 13.5 µM) | 1 to 8 (≈ 1.69 to 13.5 µM) | 1 to 8 (≈ 1.69 to 13.5 µM) | < 1 | 1 to 8 (≈ 1.69 to 13.5 µM) | < 1 | < 1 | < 1 | < 1 | > 8 | < 1 | < 1 | < 1 | MIC [17]: 1 to 8 µg/mL (≈ 1.69 to 13.5 µM)
3 | CCN[C@@H]1C[C@H](N)[C@@H](O[C@H]2OC(CN)=CC[C@H]2N)[C@H](O)[C@H]1O[C@H]1OC[C@](C)(O)[C@H](NC)[C@H]1O [Netilmicin, reference compound] | > 8 | < 1 | < 1 | < 1 | > 8 | > 8 | > 8 | 1 to 8 (≈ 2.1 to 16.8 µM) | 1 to 8 (≈ 2.1 to 16.8 µM) | 1 to 8 (≈ 2.1 to 16.8 µM) | < 1 | > 8 | < 1 | < 1 | < 1 | < 1 | > 8 | < 1 | < 1 | < 1 | MIC [17]: > 8 µg/mL
